Data as given in article PMC8888134, “Characterization of UDP-glycosyltransferase family members reveals how major flavonoid glycoside accumulates in the roots of Scutellaria baicalensis” (BMC Genomics, 2022).

Key:
Experiment in all cases: HPLC product quantification, Eadie-Hofstee plot
Format in all cases: biochemical, Scutellaria baicalensis
Details in all cases: UDP-Glc as donor; 100 mM Tris-HCl pH 7.0, 37 °C, 10 min; baicalein 0.5-200 μM
SbUGT1 = test system: T1, SbUGT1
T1 construct: full-length ORF (de novo synthesized) in pYesdest17, E. coli Rosetta (DE3), Ni-NTA purified
Excerpt: HPLC product quantification, Eadie-Hofstee plot on SbUGT1

SbUGT2 = test system: T2, SbUGT2
T2 construct: full-length ORF (RT-PCR) in pYesdest17, E. coli Rosetta (DE3), Ni-NTA purified
Excerpt: HPLC product quantification, Eadie-Hofstee plot on SbUGT2

SbUGT3 = test system: T3, SbUGT3
T3 construct: full-length ORF (RT-PCR) in pYesdest17, E. coli Rosetta (DE3), Ni-NTA purified
Excerpt: HPLC product quantification, Eadie-Hofstee plot on SbUGT3

O=c1cc(-c2ccccc2)oc2cc(O)c(O)c(O)c12 [baicalein]
Km (SbUGT1): 3.14 µM | Km (SbUGT2): 101 µM | Km (SbUGT3): 2.67 µM
